# According to ChEMBL document CHEMBL3046004, “Esterase-mediated resistance to pyrethroids in field populations of Helicoverpa armigera (Lepidoptera: Noctuidae) from Central Africa” (2009):
# Legend:
# Type in all cases: functional
# Helicoverpa armigera [1] = assay: Resistance factor, ratio of LD50 for fourth-instar larval stage of Helicoverpa armigera field strain Sorga to LD50 for fourth-instar larval stage of pyrethroid-susceptible Helicoverpa armigera laboratory strain BK-77
# Helicoverpa armigera [2] = assay: Insecticidal activity against fourth-instar larval stage of Helicoverpa armigera field strain Home isolated from cotton plant assessed as mortality applied topically onto thorax measured after 48 hr
# Helicoverpa armigera [3] = assay: Resistance factor, ratio of LD50 for fourth-instar larval stage of Helicoverpa armigera field strain Guider to LD50 for fourth-instar larval stage of pyrethroid-susceptible Helicoverpa armigera laboratory strain BK-77
# Helicoverpa armigera [4] = assay: Resistance factor, ratio of LD50 for fourth-instar larval stage of Helicoverpa armigera field strain Pitoa isolated from maize plant to LD50 for fourth-instar larval stage of pyrethroid-susceptible Helicoverpa armigera laboratory strain BK-77
# Helicoverpa armigera [5] = assay: Insecticidal activity against fourth-instar larval stage of Helicoverpa armigera field strain Ngong isolated from cotton plant assessed as mortality applied topically onto thorax measured after 48 hr
# Helicoverpa armigera [6] = assay: Insecticidal activity against fourth-instar larval stage of Helicoverpa armigera field strain Gaschiga isolated from hyptis plant assessed as mortality applied topically onto thorax 30 min after 10 microg/larva cytochrome P450 monooxygenase inhibitor, PBO application measured after 48 hr
# Helicoverpa armigera [7] = assay: Synergism factor, ratio of LD50 for fourth-instar larval stage of Helicoverpa armigera field strain Ngong to LD50 for fourth-instar larval stage of Helicoverpa armigera field strain Ngong in presence of 10 microg/larva cytochrome P450 monooxygenase inhibitor, PBO
# Helicoverpa armigera [8] = assay: Insecticidal activity against fourth-instar larval stage of Helicoverpa armigera field strain Sorga isolated from cotton plant assessed as mortality applied topically onto thorax measured after 48 hr
# Helicoverpa armigera [9] = assay: Insecticidal activity against fourth-instar larval stage of Helicoverpa armigera field strain Pitoa isolated from maize plant assessed as mortality applied topically onto thorax 30 min after 10 microg/larva cytochrome P450 monooxygenase inhibitor, PBO application measured after 48 hr
# Helicoverpa armigera [10] = assay: Resistance factor, ratio of LD50 for fourth-instar larval stage of pyrethroid-resistance Helicoverpa armigera laboratory strain GS-RR06 to LD50 for fourth-instar larval stage of pyrethroid-susceptible Helicoverpa armigera laboratory strain BK-77
# Helicoverpa armigera [11] = assay: Synergism factor, ratio of LD50 for fourth-instar larval stage of pyrethroid-resistance Helicoverpa armigera laboratory strain GS-RR08 to LD50 for fourth-instar larval stage of pyrethroid-resistance Helicoverpa armigera laboratory strain GS-RR08 in presence of 3.2 microg/larva propenofos
# Helicoverpa armigera [12] = assay: Synergism factor, ratio of LD50 for fourth-instar larval stage of Helicoverpa armigera Foumbot to LD50 for fourth-instar larval stage of Helicoverpa armigera Foumbot in presence of 10 microg/larva cytochrome P450 monooxygenase inhibitor, PBO
# Helicoverpa armigera [13] = assay: Resistance factor, ratio of LD50 for fourth-instar larval stage of pyrethroid-resistance Helicoverpa armigera laboratory strain GS-RR08 to LD50 for fourth-instar larval stage of pyrethroid-susceptible Helicoverpa armigera laboratory strain BK-77
# Helicoverpa armigera [14] = assay: Insecticidal activity against fourth-instar larval stage of Helicoverpa armigera Foumbot isolated from tomato plant assessed as mortality applied topically onto thorax measured after 48 hr
# Helicoverpa armigera [15] = assay: Insecticidal activity against fourth-instar larval stage of pyrethroid-resistance Helicoverpa armigera laboratory strain GS-RR08 assessed as mortality applied topically onto thorax measured after 48 hr
# Helicoverpa armigera [16] = assay: Insecticidal activity against fourth-instar larval stage of Helicoverpa armigera field strain Djalingo isolated from cotton plant assessed as mortality applied topically onto thorax measured after 48 hr
# Helicoverpa armigera [17] = assay: Resistance factor, ratio of LD50 for fourth-instar larval stage of Helicoverpa armigera field strain Home to LD50 for fourth-instar larval stage of pyrethroid-susceptible Helicoverpa armigera laboratory strain BK-77
# Helicoverpa armigera [18] = assay: Synergism factor, ratio of LD50 for fourth-instar larval stage of pyrethroid-resistance Helicoverpa armigera laboratory strain GS-RR06 to LD50 for fourth-instar larval stage of pyrethroid-resistance Helicoverpa armigera laboratory strain GS-RR06 in presence of 10 microg/larva cytochrome P450 monooxygenase inhibitor, PBO
# Helicoverpa armigera [19] = assay: (§1) Synergism factor, ratio of LD50 for fourth-instar larval stage of pyrethroid-resistance Helicoverpa armigera field strain Pitoa isolated from tomato plant to LD50 for fourth-instar larval stage of Helicoverpa armigera field strain Pitoa isolated from tomato plant in presence of 10 microg/larva cytochrome P450 monooxygenase inhibitor, PBO
# Helicoverpa armigera [20] = assay: as §1, with “of” for “of pyrethroid-resistance”, “maize” for “tomato”
# Helicoverpa armigera [21] = assay: Insecticidal activity against fourth-instar larval stage of pyrethroid-susceptible Helicoverpa armigera laboratory strain BK-77 assessed as mortality applied topically onto thorax measured after 48 hr
# Helicoverpa armigera [22] = assay: Insecticidal activity against fourth-instar larval stage of Helicoverpa armigera field strain Ngong isolated from cotton plant assessed as mortality applied topically onto thorax 30 min after 10 microg/larva cytochrome P450 monooxygenase inhibitor, PBO application measured after 48 hr
# Helicoverpa armigera [23] = assay: Synergism factor, ratio of LD50 for fourth-instar larval stage of Helicoverpa armigera field strain Home to LD50 for fourth-instar larval stage of Helicoverpa armigera field strain Home in presence of 10 microg/larva cytochrome P450 monooxygenase inhibitor, PBO
# Helicoverpa armigera [24] = assay: Insecticidal activity against fourth-instar larval stage of Helicoverpa armigera field strain Tchollire isolated from cotton plant assessed as mortality applied topically onto thorax measured after 48 hr
# Helicoverpa armigera [25] = assay: Insecticidal activity against fourth-instar larval stage of Helicoverpa armigera field strain Home isolated from cotton plant assessed as mortality applied topically onto thorax 30 min after 10 microg/larva cytochrome P450 monooxygenase inhibitor, PBO application measured after 48 hr
# Helicoverpa armigera [26] = assay: Insecticidal activity against fourth-instar larval stage of Helicoverpa armigera field strain Pitoa isolated from tomato plant assessed as mortality applied topically onto thorax 30 min after 10 microg/larva cytochrome P450 monooxygenase inhibitor, PBO application measured after 48 hr
# Helicoverpa armigera [27] = assay: Insecticidal activity against fourth-instar larval stage of pyrethroid-resistance Helicoverpa armigera laboratory strain GS-RR08 assessed as mortality applied topically onto thorax measured after 48 hr in presence of 3.2 microg/larva […]
# Helicoverpa armigera [28] = assay: Resistance factor, ratio of LD50 for fourth-instar larval stage of Helicoverpa armigera field strain Tchollire to LD50 for fourth-instar larval stage of pyrethroid-susceptible Helicoverpa armigera laboratory strain BK-77
# Helicoverpa armigera [29] = assay: Resistance factor, ratio of LD50 for fourth-instar larval stage of Helicoverpa armigera field strain Djalingo to LD50 for fourth-instar larval stage of pyrethroid-susceptible Helicoverpa armigera laboratory strain BK-77
# Helicoverpa armigera [30] = assay: Resistance factor, ratio of LD50 for fourth-instar larval stage of Helicoverpa armigera field strain Mokong to LD50 for fourth-instar larval stage of pyrethroid-susceptible Helicoverpa armigera laboratory strain BK-77
# Helicoverpa armigera [31] = assay: Resistance factor, ratio of LD50 for fourth-instar larval stage of Helicoverpa armigera Foumbot to LD50 for fourth-instar larval stage of pyrethroid-susceptible Helicoverpa armigera laboratory strain BK-77
# Helicoverpa armigera [32] = assay: Insecticidal activity against fourth-instar larval stage of pyrethroid-resistance Helicoverpa armigera laboratory strain GS-RR06 assessed as mortality applied topically onto thorax measured after 48 hr
# Helicoverpa armigera [33] = assay: Resistance factor, ratio of LD50 for fourth-instar larval stage of Helicoverpa armigera field strain Ngong to LD50 for fourth-instar larval stage of pyrethroid-susceptible Helicoverpa armigera laboratory strain BK-77
# Helicoverpa armigera [34] = assay: Insecticidal activity against fourth-instar larval stage of Helicoverpa armigera field strain Pitoa isolated from maize plant assessed as mortality applied topically onto thorax measured after 48 hr
# Helicoverpa armigera [35] = assay: Insecticidal activity against fourth-instar larval stage of Helicoverpa armigera field strain Guider isolated from cotton plant assessed as mortality applied topically onto thorax measured after 48 hr
# Helicoverpa armigera [36] = assay: Insecticidal activity against fourth-instar larval stage of Helicoverpa armigera field strain Mokong isolated from cotton plant assessed as mortality applied topically onto thorax measured after 48 hr
# Helicoverpa armigera [37] = assay: Insecticidal activity against fourth-instar larval stage of pyrethroid-resistance Helicoverpa armigera laboratory strain GS-RR06 assessed as mortality applied topically onto thorax 30 min after 10 microg/larva cytochrome P450 monooxygenase inhibitor, PBO application measured after 48 hr
# Helicoverpa armigera [38] = assay: Insecticidal activity against fourth-instar larval stage of Helicoverpa armigera field strain Guider isolated from cotton plant assessed as mortality applied topically onto thorax 30 min after 10 microg/larva cytochrome P450 monooxygenase inhibitor, PBO application measured after 48 hr
# Helicoverpa armigera [39] = assay: Resistance factor, ratio of LD50 for fourth-instar larval stage of Helicoverpa armigera field strain Gaschiga isolated from hyptis plant to LD50 for fourth-instar larval stage of pyrethroid-susceptible Helicoverpa armigera laboratory strain BK-77
# Helicoverpa armigera [40] = assay: Synergism factor, ratio of LD50 for Helicoverpa armigera field strain Guider to LD50 for fourth-instar larval stage of Helicoverpa armigera field strain Guider in presence of 10 microg/larva cytochrome P450 monooxygenase inhibitor, PBO
# Helicoverpa armigera [41] = assay: Insecticidal activity against fourth-instar larval stage of Helicoverpa armigera Foumbot isolated from tomato plant assessed as mortality applied topically onto thorax 30 min after 10 microg/larva cytochrome P450 monooxygenase inhibitor, PBO application measured after 48 hr
# Helicoverpa armigera [42] = assay: Insecticidal activity against fourth-instar larval stage of Helicoverpa armigera field strain Gaschiga isolated from hyptis plant assessed as mortality applied topically onto thorax measured after 48 hr
# Helicoverpa armigera [43] = assay: Synergism factor, ratio of LD50 for fourth-instar larval stage of Helicoverpa armigera field strain Gaschiga isolated form hyptis plant to LD50 for fourth-instar larval stage of Helicoverpa armigera field strain Gaschiga isolated from hyptis plant in presence of 10 microg/larva cytochrome P450 monooxygenase inhibitor, PBO
# Helicoverpa armigera [44] = assay: Resistance factor, ratio of LD50 for fourth-instar larval stage of Helicoverpa armigera field strain Gaschiga isolated from tomato plant to LD50 for fourth-instar larval stage of pyrethroid-susceptible Helicoverpa armigera laboratory strain BK-77
# Helicoverpa armigera [45] = assay: Insecticidal activity against fourth-instar larval stage of Helicoverpa armigera field strain Gaschiga isolated from tomato plant assessed as mortality applied topically onto thorax measured after 48 hr
# Helicoverpa armigera [46] = assay: Insecticidal activity against fourth-instar larval stage of Helicoverpa armigera field strain Pitoa isolated from tomato plant assessed as mortality applied topically onto thorax measured after 48 hr
# Helicoverpa armigera [47] = assay: Resistance factor, ratio of LD50 for fourth-instar larval stage of Helicoverpa armigera field strain Pitoa isolated from tomato plant to LD50 for fourth-instar larval stage of pyrethroid-susceptible Helicoverpa armigera laboratory strain BK-77
compound,measurement,setting,value
CC1(C)C(C=C(Cl)Cl)C1C(=O)OC(C#N)c1cccc(Oc2ccccc2)c1 (stereo not drawn) [ALPHA-CYPERMETHRIN],Ratio,Helicoverpa armigera [1],123
same,LD50,Helicoverpa armigera [2],43.9 microgAi/g
same,Ratio,Helicoverpa armigera [3],67
same,Ratio,Helicoverpa armigera [4],510
same,LD50,Helicoverpa armigera [5],112.6 microgAi/g
same,LD50,Helicoverpa armigera [6],1.8 microgAi/g
same,Ratio,Helicoverpa armigera [7],37.5
same,LD50,Helicoverpa armigera [8],57.7 microgAi/g
same,LD50,Helicoverpa armigera [9],28.9 microgAi/g
same,Ratio,Helicoverpa armigera [10],1529
same,Ratio,Helicoverpa armigera [11],3.7
same,Ratio,Helicoverpa armigera [12],1.3
same,Ratio,Helicoverpa armigera [13],1771
same,LD50,Helicoverpa armigera [14],81.6 microgAi/g
same,LD50,Helicoverpa armigera [15],832.5 microgAi/g
same,LD50,Helicoverpa armigera [16],91.5 microgAi/g
same,Ratio,Helicoverpa armigera [17],93
same,Ratio,Helicoverpa armigera [18],1.5
same,Ratio,Helicoverpa armigera [19],5
same,Ratio,Helicoverpa armigera [20],8.3
same,LD50,Helicoverpa armigera [21],0.5 microgAi/g
same,LD50,Helicoverpa armigera [22],3 microgAi/g
same,Ratio,Helicoverpa armigera [23],2.1
same,LD50,Helicoverpa armigera [24],48 microgAi/g
same,LD50,Helicoverpa armigera [25],21.3 microgAi/g
same,LD50,Helicoverpa armigera [26],53.2 microgAi/g
same,LD50,Helicoverpa armigera [27],226.6 microgAi/g
same,Ratio,Helicoverpa armigera [28],102
same,Ratio,Helicoverpa armigera [29],194
same,Ratio,Helicoverpa armigera [30],152
same,Ratio,Helicoverpa armigera [31],174
same,LD50,Helicoverpa armigera [32],718.4 microgAi/g
same,Ratio,Helicoverpa armigera [33],240
same,LD50,Helicoverpa armigera [34],239.9 microgAi/g
same,LD50,Helicoverpa armigera [35],31.6 microgAi/g
same,LD50,Helicoverpa armigera [36],71.5 microgAi/g
same,LD50,Helicoverpa armigera [37],480.3 microgAi/g
same,LD50,Helicoverpa armigera [38],8.8 microgAi/g
same,Ratio,Helicoverpa armigera [39],96
same,Ratio,Helicoverpa armigera [40],3.6
same,LD50,Helicoverpa armigera [41],63 microgAi/g
same,LD50,Helicoverpa armigera [42],45 microgAi/g
same,Ratio,Helicoverpa armigera [43],25
CC1(C)[C@H](C(=O)O[C@H](C#N)c2cccc(Oc3ccccc3)c2)[C@@H]1C=C(Br)Br [DELTAMETHRIN],Ratio,Helicoverpa armigera [44],316
same,Ratio,Helicoverpa armigera [4],590
same,LD50,Helicoverpa armigera [5],6.7 microgAi/g
same,Ratio,Helicoverpa armigera [10],2972
same,LD50,Helicoverpa armigera [45],15.8 microgAi/g
same,LD50,Helicoverpa armigera [46],37.8 microgAi/g
same,LD50,Helicoverpa armigera [21],0.05 microgAi/g
same,LD50,Helicoverpa armigera [24],3 microgAi/g
same,Ratio,Helicoverpa armigera [47],756
same,Ratio,Helicoverpa armigera [28],60
same,LD50,Helicoverpa armigera [32],148.6 microgAi/g
same,Ratio,Helicoverpa armigera [33],134
same,LD50,Helicoverpa armigera [34],29.5 microgAi/g
COC(=O)N(C(=O)N1CO[C@@]2(C(=O)OC)Cc3cc(Cl)ccc3C2=N1)c1ccc(OC(F)(F)F)cc1 [INDOXACARB],Ratio,Helicoverpa armigera [44],0.4
same,Ratio,Helicoverpa armigera [4],1.1
same,LD50,Helicoverpa armigera [5],0.9 microgAi/g
same,Ratio,Helicoverpa armigera [10],1
same,LD50,Helicoverpa armigera [45],0.3 microgAi/g
same,LD50,Helicoverpa armigera [46],1.3 microgAi/g
same,LD50,Helicoverpa armigera [21],0.7 microgAi/g
same,Ratio,Helicoverpa armigera [47],2
same,LD50,Helicoverpa armigera [32],0.7 microgAi/g
same,Ratio,Helicoverpa armigera [33],1.4
same,LD50,Helicoverpa armigera [34],0.7 microgAi/g
Clc1ccc(C(c2ccc(Cl)cc2)C(Cl)(Cl)Cl)cc1 [CHLOROPHENOTHANE],Ratio,Helicoverpa armigera [44],1.4
same,Ratio,Helicoverpa armigera [4],1.9
same,LD50,Helicoverpa armigera [5],36.8 microgAi/g
same,Ratio,Helicoverpa armigera [10],1
same,LD50,Helicoverpa armigera [45],37.4 microgAi/g
same,LD50,Helicoverpa armigera [46],34.8 microgAi/g
same,LD50,Helicoverpa armigera [21],24.3 microgAi/g
same,LD50,Helicoverpa armigera [24],26.7 microgAi/g
same,Ratio,Helicoverpa armigera [47],1.3
same,Ratio,Helicoverpa armigera [28],1
same,LD50,Helicoverpa armigera [32],26.1 microgAi/g
same,Ratio,Helicoverpa armigera [33],1.4
same,LD50,Helicoverpa armigera [34],48.9 microgAi/g
